In patent publication US11203600B2 (Denali Therapeutics Inc., priority 2017, dated 2021):

These molecules were tested against GST-hRIPK1 (8-327) (Homo sapiens (Human), UniProt Q13546) (assay: Fluorescent Polarization Binding (FP Binding) assay, RIPK1). Conditions: 10 nM GST-hRIPK1 (8-327), 5 nM fluorescent-labeled ligand, RT, 30 min, mean of at least two independent experiments.
How it was run: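 Binding by fluorescence polarisation at RT: 10 nM baculovirus-expressed GST-hRIPK1 (8-327) and 5 nM fluorescent ligand, 30 min, in 50 mM HEPES pH 7.5, 50 mM MgCl2, 0.02% CHAPS, 1% DMSO. FP read at ex 531/em 595 nm. IC50 from normalised percent inhibition, mean of ≥2 experiments.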

Chain of GST-hRIPK1 (8-327) (Q13546 8-327): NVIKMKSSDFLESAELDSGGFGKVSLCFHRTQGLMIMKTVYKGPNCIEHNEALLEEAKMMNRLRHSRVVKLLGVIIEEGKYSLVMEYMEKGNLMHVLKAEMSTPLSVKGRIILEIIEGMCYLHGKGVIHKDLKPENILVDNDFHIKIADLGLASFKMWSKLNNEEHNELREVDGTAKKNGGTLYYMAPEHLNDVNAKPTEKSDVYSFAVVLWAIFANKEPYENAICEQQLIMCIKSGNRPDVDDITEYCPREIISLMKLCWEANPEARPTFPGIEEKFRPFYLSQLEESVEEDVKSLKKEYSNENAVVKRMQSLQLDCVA

SMILES	IC50
N#Cc1cccc2c1OCCN(C(=O)C1CCN(c3ncc(F)cn3)CC1)C2 [Example 183, 4-[1-(5-fluoropyrimidin-2-yl)piperidine-4-carbonyl]-3,5-dihydro-2H-1,4-benzoxazepine-9-carbonitrile]	0.1 to 100 nM
O=C(C1CCN(c2ncc(F)cn2)CC1)N1CCOc2ccccc2C1 [Example 8, 3,5-dihydro-2H-1,4-benzoxazepin-4-yl-[1-(5-fluoropyrimidin-2-yl)-4-piperidyl]methanone]	0.1 to 100 nM
COCCOc1nc(N2CCC(C(=O)N3CCOc4c(F)cncc4C3)CC2)ncc1F [Example 130, (9-fluoro-3,5-dihydro-2H-pyrido[3,4-f][1,4]oxazepin-4-yl)-[1-[5-fluoro-4-(2-methoxyethoxy)pyrimidin-2-yl]-4-piperidyl]methanone]	0.1 to 100 nM
COC1(C(=O)N2CCOc3c(F)cncc3C2)CCN(c2ncc(F)c(OCCN(C)C)n2)CC1 [Example 136]	> 1000 nM
COc1ccc2c(c1)OCCN(C(=O)C(C)(C)C(F)F)C2 [Example 12, 3,3-difluoro-1-(8-methoxy-3,5-dihydro-2H-14-benzoxazepin-4-yl)-2,2-dimethyl-propan-1-one]	100 to 1000 nM
CC(C)(CC#N)C(=O)N1CCOc2c(C#N)cccc2C1 [Example 25, 4-(3-cyano-2,2-dimethyl-propanoyl)-3,5-dihydro-2H-1,4-benzoxazepine-9-carbonitrile]	0.1 to 100 nM

Same assay, conditions: GST-hRIPK1 (8-327), mean of at least two independent experiments

SMILES	IC50
CC1(C(=O)N2CCOc3c(C#N)cncc3C2)CCN(c2ncc(F)cn2)CC1(F)F (single isomer, unassigned) [Example 284, 4-[3,3-Difluoro-1-(5-fluoropyrimidin-2-yl)-4-methyl-piperidine-4-carbonyl]-3,5-dihydro-2H-pyrido[3,4-f][1,4]oxazepine-9-carbonitrile]	0.1 to 100 nM
CCC(C)(C)C(=O)N1CCOc2c(F)cncc2C1 [Example 207, 1-(9-fluoro-3,5-dihydro-2H-pyrido[3,4-f][1,4]oxazepin-4-yl)-2,2-dimethyl-butan-1-one]	100 to 1000 nM
